Laboratory results published in patent US12459922B2 (Gilead Sciences, Inc., priority 2022, dated 2025).

tested on: endogenous cellular STAT1 (phosphorylated at Tyr701) in NCI-H1373 cells; test: Phospho-STAT1 (Tyr701) LANCE Ultra TR-FRET Detection Assay; format: cell-based; conditions: Homo sapiens, NCI-H1373, 48 h, phospho-STAT1 (Tyr701) induction, read-out: NH1373 pSTAT1 EC50

Row | Structure (SMILES) | EC50
1 | O=c1[nH]ncc(N[C@H]2CCC[C@@H](Cn3ccc4cc(-c5cnc(OC(F)F)cn5)c(F)cc4c3=O)C2)c1C(F)(F)F [Example 259, 6-(5-(difluoromethoxy)pyrazin-2-yl)-7-fluoro-2-(((1R,3S)-3-((6-oxo-5-(trifluoromethyl)-1,6-dihydropyridazin-4-yl)amino)cyclohexyl)methyl)isoquinolin-1(2H)-one] | 183 nM
2 | N#CC[C@@H](CCCn1ccc2cc(-c3ncc(C(F)(F)F)cn3)c(F)cc2c1=O)Nc1cn[nH]c(=O)c1C(F)(F)F [Example 160, (3R)-6-[7-fluoro-1-oxo-6-[5-(trifluoromethyl)pyrimidin-2-yl]-2-isoquinolyl]-3-[[6-oxo-5-(trifluoromethyl)-1H-pyridazin-4-yl]amino]hexanenitrile] | 219 nM
3 | Nc1cc(-c2cc3ccn(C[C@@H]4CCC[C@H](Nc5cn[nH]c(=O)c5C(F)(F)F)C4)c(=O)c3cc2F)cnc1C(F)(F)F [Example 271, 6-(5-amino-6-(trifluoromethyl)pyridin-3-yl)-7-fluoro-2-(((1R,3S)-3-((6-oxo-5-(trifluoromethyl)-1,6-dihydropyridazin-4-yl)amino)cyclohexyl)methyl)isoquinolin-1(2H)-one] | 211 nM
4 | Nc1nc(-c2cc3ccn(CCC[C@@H](Nc4cn[nH]c(=O)c4C(F)(F)F)C4CC4)c(=O)c3cc2F)ncc1C(F)F [Example 147] | 39.1 nM
5 | C[C@H](Nc1cn[nH]c(=O)c1C(F)(F)F)[C@@H]1C[C@H]1Cn1ccc2cc(-c3ncc(C(F)(F)F)cn3)c(F)cc2c1=O [Example 68, 7-fluoro-2-[[(1R,2R)-2-[(1S)-1-[[6-oxo-5-(trifluoromethyl)-1H-pyridazin-4-yl]amino]ethyl]cyclopropyl]methyl]-6-[5-(trifluoromethyl)pyrimidin-2-yl]isoquinolin-1-one] | 10000 nM
6 | Nc1nc(-c2cc3ccn(C[C@@H]4CCC[C@H](Nc5cn[nH]c(=O)c5C(F)(F)F)C4)c(=O)c3cc2F)ccc1C(F)(F)F [Example 251, 6-(6-amino-5-(trifluoromethyl)pyridin-2-yl)-7-fluoro-2-(((1R,3S)-3-((6-oxo-5-(trifluoromethyl)-1,6-dihydropyridazin-4-yl)amino)cyclohexyl)methyl)isoquinolin-1(2H)-one] | 47.3 nM
7 | Nc1nc(-c2cc3ccn(C[C@@H]4CCC[C@H](Nc5cn[nH]c(=O)c5C(F)(F)F)C4)c(=O)c3cc2F)cnc1C(F)(F)F [Example 249, 6-(6-amino-5-(trifluoromethyl)pyrazin-2-yl)-7-fluoro-2-(((1R,3S)-3-((6-oxo-5-(trifluoromethyl)-1,6-dihydropyridazin-4-yl)amino)cyclohexyl)methyl)isoquinolin-1(2H)-one] | 32.4 nM
8 | C[C@@H](CCCn1ccc2cc(-c3nc(N)ncc3C(F)F)c(F)c(F)c2c1=O)Nc1cn[nH]c(=O)c1C(F)(F)F [Example 114, 6-[2-amino-5-(difluoromethyl)pyrimidin-4-yl]-7,8-difluoro-2-[(4S)-4-[[6-oxo-5-(trifluoromethyl)-1H-pyridazin-4-yl]amino]pentyl]isoquinolin-1-one] | 852 nM
9 | COc1cnc(-c2cc3ccn(CCC[C@H](C)Nc4cn[nH]c(=O)c4C(F)(F)F)c(=O)c3cc2F)nc1N [Example 102, 6-(4-amino-5-methoxy-pyrimidin-2-yl)-7-fluoro-2-[(4S)-4-[[6-oxo-5-(trifluoromethyl)-1H-pyridazin-4-yl]amino]pentyl]isoquinolin-1-one] | 8.23 nM
10 | O=c1[nH]ncc(N2C[C@@H](F)C[C@H]2CCCn2ccc3cc(-c4ncc(C(F)(F)F)cn4)c(F)cc3c2=O)c1C(F)(F)F [Example 141, 7-fluoro-2-[3-[(2R,4S)-4-fluoro-1-[6-oxo-5-(trifluoromethyl)-1H-pyridazin-4-yl]pyrrolidin-2-yl]propyl]-6-[5-(trifluoromethyl)pyrimidin-2-yl]isoquinolin-1-one] | 16.2 nM
11 | C[C@@H](CCCn1cnc2cc(-c3ncc(C4CC4)cn3)c(F)cc2c1=O)Nc1cn[nH]c(=O)c1C(F)(F)F [Example 83, (S)-7-(5-cyclopropylpyrimidin-2-yl)-6-fluoro-3-(4-((6-oxo-5-(trifluoromethyl)-1,6-dihydropyridazin-4-yl)amino)pentyl)quinazolin-4(3H)-one] | 58.2 nM
12 | O=c1[nH]ncc(N[C@@H](CO)CCCn2ccc3cc(-c4ncc(C(F)(F)F)cn4)c(F)cc3c2=O)c1C(F)(F)F [Example 88, 7-fluoro-2-[(4R)-5-hydroxy-4-[[6-oxo-5-(trifluoromethyl)-1H-pyridazin-4-yl]amino]pentyl]-6-[5-(trifluoromethyl)pyrimidin-2-yl]isoquinolin-1-one] | 86.2 nM

Results, then the compound that gave them:

Row | EC50 | Structure (SMILES)
13 | 561 nM | Cc1cc(N)nc(-c2cc3ccn(CCC[C@H](C)Nc4cn[nH]c(=O)c4C(F)(F)F)c(=O)c3cc2F)n1 [Example 315, (S)-6-(4-amino-6-methylpyrimidin-2-yl)-7-fluoro-2-(4-((6-oxo-5-(trifluoromethyl)-1,6-dihydropyridazin-4-yl)amino)pentyl)isoquinolin-1(2H)-one]
14 | 348 nM | CCNc1cnc(-c2cc3ccn(C[C@@H]4CCC[C@H](Nc5cn[nH]c(=O)c5C(F)(F)F)C4)c(=O)c3cc2F)cn1 [Example 277, 6-(5-(ethylamino)pyrazin-2-yl)-7-fluoro-2-(((1R,3S)-3-((6-oxo-5-(trifluoromethyl)-1,6-dihydropyridazin-4-yl)amino)cyclohexyl)methyl)isoquinolin-1(2H)-one]
15 | 11.4 nM | O=c1[nH]ncc(N[C@H]2CCCC[C@@H]2CCn2ccc3cc(-c4ncc(C(F)(F)F)cn4)c(F)cc3c2=O)c1C(F)(F)F [Example 450, 7-fluoro-2-[2-[(1R,2S)-2-[[6-oxo-5-(trifluoromethyl)-1H-pyridazin-4-yl]amino]cyclohexyl]ethyl]-6-[5-(trifluoromethyl)pyrimidin-2-yl]isoquinolin-1-one]
16 | 6.47 nM | CC[C@@H](CCCn1ccc2cc(-c3ncc(C(F)(F)F)c(N)n3)c(F)c(F)c2c1=O)Nc1cn[nH]c(=O)c1C(F)(F)F [Example 348, (S)-6-(4-amino-5-(trifluoromethyl)pyrimidin-2-yl)-7,8-difluoro-2-(4-((6-oxo-5-(trifluoromethyl)-1,6-dihydropyridazin-4-yl)amino)hexyl)isoquinolin-1(2H)-one]
17 | 443 nM | O=c1[nH]ncc(N[C@H]2CCCC[C@H]2CCn2ccc3cc(-c4ncc(C(F)(F)F)cn4)c(F)cc3c2=O)c1C(F)(F)F (racemic) [Example 436, (rac)-7-fluoro-2-(2-((1S,2S)-2-((6-oxo-5-(trifluoromethyl)-1,6-dihydropyridazin-4-yl)amino)cyclohexyl)ethyl)-6-(5-(trifluoromethyl)pyrimidin-2-yl)isoquinolin-1(2H)-one]
18 | 28.6 nM | C[C@@H]1C[C@H](C)N1c1nc(-c2cc3ccn(CCC[C@H](C)Nc4cn[nH]c(=O)c4C(F)(F)F)c(=O)c3cc2F)ncc1C(F)(F)F [Example 318, 6-(4-((2R,4S)-2,4-dimethylazetidin-1-yl)-5-(trifluoromethyl)pyrimidin-2-yl)-7-fluoro-2-((S)-4-((6-oxo-5-(trifluoromethyl)-1,6-dihydropyridazin-4-yl)amino)pentyl)isoquinolin-1(2H)-one]
19 | 187 nM | CC[C@@H](CCCn1cnc2cc(-c3cnc(C(F)F)cn3)c(F)cc2c1=O)Nc1cn[nH]c(=O)c1C(F)(F)F [Example 346, (S)-7-(5-(difluoromethyl)pyrazin-2-yl)-6-fluoro-3-(4-((6-oxo-5-(trifluoromethyl)-1,6-dihydropyridazin-4-yl)amino)hexyl)quinazolin-4(3H)-one]
20 | 18.5 nM | Nc1nc(-c2cc3ncn(CCC[C@H](COC(F)F)Nc4cn[nH]c(=O)c4C(F)(F)F)c(=O)c3cc2F)ncc1C(F)F [Example 383, (R)-7-(4-amino-5-(difluoromethyl)pyrimidin-2-yl)-3-(5-(difluoromethoxy)-4-((6-oxo-5-(trifluoromethyl)-1,6-dihydropyridazin-4-yl)amino)pentyl)-6-fluoroquinazolin-4(3H)-one]
21 | 4.65 nM | C[C@@H](CCCn1ccc2cc(-c3cnc(C(F)F)c(N)n3)c(F)cc2c1=O)Nc1cn[nH]c(=O)c1C(F)(F)F [Example 324, (S)-6-(6-amino-5-(difluoromethyl)pyrazin-2-yl)-7-fluoro-2-(4-((6-oxo-5-(trifluoromethyl)-1,6-dihydropyridazin-4-yl)amino)pentyl)isoquinolin-1(2H)-one]
22 | 1.99 nM | O=c1[nH]ncc(N[C@H](CCCn2ccc3cc(-c4ccc(C(F)(F)F)cn4)c(F)c(F)c3c2=O)COC(F)F)c1C(F)(F)F [Example 407, (R)-2-(5-(difluoromethoxy)-4-((6-oxo-5-(trifluoromethyl)-1,6-dihydropyridazin-4-yl)amino)pentyl)-7,8-difluoro-6-(5-(trifluoromethyl)pyridin-2-yl)isoquinolin-1(2H)-one]
23 | 0.51 nM | O=c1[nH]ncc(N[C@H]2CCC[C@@H](Cn3ccc4cc(-c5nc6ccccn6n5)c(F)cc4c3=O)C2)c1C(F)(F)F [Example 488, 6-([1,2,4]triazolo[1,5-a]pyridin-2-yl)-7-fluoro-2-(((1R,3S)-3-((6-oxo-5-(trifluoromethyl)-1,6-dihydropyridazin-4-yl)amino)cyclohexyl)methyl)isoquinolin-1(2H)-one]
24 | 15.5 nM | O=c1[nH]ncc(N[C@H]2CCC[C@@H](Cn3ccc4cc(-c5ccc(C(F)(F)CO)cn5)c(F)cc4c3=O)C2)c1C(F)(F)F [Example 279, 6-(5-(1,1-difluoro-2-hydroxyethyl)pyridin-2-yl)-7-fluoro-2-(((1R,3S)-3-((6-oxo-5-(trifluoromethyl)-1,6-dihydropyridazin-4-yl)amino)cyclohexyl)methyl)isoquinolin-1(2H)-one]
25 | 10.6 nM | O=c1[nH]ncc(O[C@H]2CCC[C@@H](Cn3cnc4cc(-c5ncc(C(F)F)cn5)c(F)cc4c3=O)C2)c1C(F)(F)F [Example 457, 7-(5-(difluoromethyl)pyrimidin-2-yl)-6-fluoro-3-(((1R,3S)-3-((6-oxo-5-(trifluoromethyl)-1,6-dihydropyridazin-4-yl)oxy)cyclohexyl)methyl)quinazolin-4(3H)-one]
